In BindingDB's records for patent US20250270222 (Satellos Bioscience, 2025):

How the values were obtained:
[1] = biological target: T1, BMP-2-inducible protein kinase [38-345,K320A,K321A] (Human, UniProt Q9NSY1, K320A/K321A); test: BIKE pSENs Assay
T1 construct: 38-345
Procedure: BIKE protein was dissolved at 20 nM in 1× enzyme solution (50 mM HEPES pH7.5, 10 mM MgCl2, 1 mM DTT, 1% glycerol, 0.5 mM EGTA, 0.01% Briji35, 0.02% BSA) and 12.5 ul was incubated with 250 nl DMSO or 250 nl compound in DMSO at 25° C. for 15 min. The reaction was started by addition of 12.5 ul of 30 uM AQT0759 (Assayquant, CSKS-AQT0759B) and 40 uM ATP which were diluted in 1× substrate dilution buffer (50 mM HEPES pH7.5, 10 mM MgCl2. 1 mM DTT, 1% glycerol, 0.5 mM EGTA, 0.01% Briji35).

[2] = biological target: T2, Cyclin-G-associated kinase [25-335] (Human, UniProt O14976); test: GAK pSENs Assay
T2 construct: 25-335
T2 sequence (O14976 whole entry): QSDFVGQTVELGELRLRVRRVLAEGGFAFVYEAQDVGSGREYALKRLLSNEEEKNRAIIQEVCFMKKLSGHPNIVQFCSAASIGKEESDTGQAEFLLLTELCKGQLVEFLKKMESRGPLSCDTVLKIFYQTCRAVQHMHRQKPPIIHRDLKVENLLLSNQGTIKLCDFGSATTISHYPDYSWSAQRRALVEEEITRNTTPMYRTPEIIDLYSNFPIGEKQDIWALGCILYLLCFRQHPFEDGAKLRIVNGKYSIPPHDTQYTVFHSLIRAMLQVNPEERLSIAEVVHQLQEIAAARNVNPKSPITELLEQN
From the text: This example describes one illustrative method for determining the IC50 of the compounds of the present invention against GAK (amino acids Q25-N335).

T1 sequence (Q9NSY1 38-345 K320A/K321A): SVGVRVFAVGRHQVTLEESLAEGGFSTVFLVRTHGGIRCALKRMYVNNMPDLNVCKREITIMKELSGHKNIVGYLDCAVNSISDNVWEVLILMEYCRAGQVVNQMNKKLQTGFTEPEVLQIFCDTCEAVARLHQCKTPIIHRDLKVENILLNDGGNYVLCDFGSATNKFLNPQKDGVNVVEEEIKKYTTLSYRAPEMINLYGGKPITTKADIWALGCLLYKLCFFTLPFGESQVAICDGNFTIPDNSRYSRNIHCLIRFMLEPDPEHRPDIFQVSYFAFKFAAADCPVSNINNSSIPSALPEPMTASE

For `CN(CCN1C[C@@H](OC(=O)N2CCN(c3ccn4ncc(-c5cccnc5OC5CC5)c4n3)CC2)CC1=O)C(=O)OC(C)(C)C` [US20250270222, Compound I-35], the IC50 [1] was > 1500 nM and the IC50 [2] was > 1500 nM.
